Measurements published in article PMC11912270, “Synthesis and SAR Studies of Acyl-Thiourea Platinum(II) Complexes Yield Analogs with Dual-Stage Antiplasmodium Activity” (ACS Medicinal Chemistry Letters, 2025).

Columns and labels:
[1] = tested on: PfNF54 ABS parasites; assay: SYBR Green I-based proliferative assay, PfNF54 ABS parasites; assay type: cell-based, Plasmodium falciparum; conditions: ABS, SYBR Green I, 96 h; mean ± S.E., N = 3 (no S.E.: N = 1)
Procedure: The parasites were incubated under drug […]
incubation, parasite survival was determined by adding equal volumes of parasite suspension (100 µL) and SYBR Green I lysis buffer (0.2% µL/mL of 10 000x SYBR Green I, 20 mM Tris-HCl, pH 7.5, 5 mM EDTA, 0.008% saponin (w/v) and 0.08% Triton x-100). This was incubated for 1 hour at room temperature in the dark. […]

[2] = Kinetic solubility by HPLC (pH 6.5); conditions: kinetic, HPLC, pH 6.5
Procedure: 1.7. Kinetic solubility by HPLC (pH 6.5)
Solubility was measured at pH 6.5 using an adapted miniaturized shake-flask method, in 96-well plate format.4,5 Briefly, 4 µL of a 10 mM stock in DMSO was added to a 96-well plate and evaporated using a GeneVac system. Phosphate buffer pH 6.5 was then added to the wells […]
At the end of this incubation, the […]
in the analysis plate. Analysis was then performed by HPLC-DAD and the solubility of each sample was determined from the corresponding calibration curve. […]

[3] = Glutathione binding UV-Vis titration; conditions: GSH binding
Procedure: The binding of glutathione (GSH) to the platinum(II) complexes was monitored by observing the decrease in the metal-to-ligand-charge transfer (MLCT) band via a UV-Vis spectrophotometer.8 For this, 1–10 µL aliquots of GSH (0.4 M) in a PBS and DMSO (0.01% DMSO, v/v) mixture was added to a cuvette containing the relevant metal complex (50 µM) in the same solvent mixture. After each addition, the solution was stirred and allowed to incubate at room temperature for 3–5 minutes before recording the absorption spectrum between the wavelength range of 250–700 nm. These titrations were performed in triplicate and the average binding constants (logK) were reported with the standard error of the mean (SEM). The logK values were calculated from the best-fit model (describing a 1:1 association) using Equation 1.

[4] = Cyclic voltammetry; assay type: physicochemical
Text: It is known that Fe^2+/Fe^3+ redox chemistry has an important role in the bioactivity of ferrocene derivatives.[33] The production of reactive oxygen species (ROS) is one of the modes of action of ferroquine and other ferrocene derivatives[34] and is linked to the correlation between their bioactivity and electrochemical behavior. We determined whether a similar correlation could be made for the mixed-ligand platinum(II) complexes reported herein given that metal centers have the potential to be oxidized and reduced. The electrochemistry of the complexes was studied using cyclic voltammetry (CV), which uses a triangular potential waveform. The CV experiments were performed in either dry MeOH or DMF containing tetrabutylammonium chloride (TBACl) as the supporting electrolyte. The working electrode was glassy carbon with a platinum wire as the counter electrode and Ag/AgCl as the reference. The anodic (Epa) and cathodic (Epc) peak potentials at 0.1 V/s and half-wave potentials (E1/2) were measured (Table 3). All of the tested complexes undergo reversible one-electron Pt^2+/Pt^+ reductions (Figures S38–S46). Complexes C2, C4, and C8 undergo a second nonreversible reduction (Epc2), which is most likely ligand-based and linked to reductions of the substituent on the bpy. Looking at SAR2, the more electron-withdrawing the substituent, the […] the E1/2 (V vs Fe/Fe^+) value was. This trend was expected, as a more electron-withdrawing substituent reduces the electron density around the metal center, making it easier for the metal to be reduced from Pt^2+ to Pt^+. […] This is also the case for other bpy-containing platinum(II) complexes that only undergo reductions.[35],[36] […]
For the cyclic voltammetry experiments a solution of the test compound (1 x 10-3) in DMSO (3 mL) is added to the electrolyte solution (0.1 M tetrabutylammonium chloride (TBACl) in DMSO). The electrochemical measurements were obtained using a Basi Epsilon Eclipse Electrochemical Analyzer Potentiostat and the CV graphs were generated using Excel. The working electrode was glassy carbon (GC) with platinum wire as the counter electrode (CE) and Ag/AgCl as the reference. […]

[5] = In vivo pharmacokinetics in female Balb/C mice; design: species or system mouse
Procedure: In this regard, three replicates of female Balb/C mice were dosed at either 3 mg/kg (intravenously, i.v.) or 10 mg/kg (orally, p.o.). Blood was sampled at specific time intervals over 48 h. The corresponding PK parameters were calculated using noncompartmental analysis (Table 2). […]
1.9. Determination of pharmacokinetic parameters […]
parameters. Compounds were administered either intravenously as a bolus solution […]
Mice were allowed to eat and access water freely.
To determine the PK parameters, blood samples were collected from the tail vein of the mice into heparinized microcentrifugation tubes at distinct sampling times (0.17, 0.5, 1, 3, 5, 7, 9, 24, and 48 hours for intravenous dosing; 0.5, 1, 3, 5, 7, 9, 24 and 48 hours for oral dosing). All samples were stored at -80 °C until extraction.
For the bioanalysis, frozen whole blood was thawed at room temperature and 1-0 µL of each sample was extracted by protein precipitation (using 100 µL of acetonitrile containing 10 ng/ml of the internal standard, MMV394902). The sample was centrifuged. Supernatants of each sample were injected into the LC-MS/MS column for analysis. The analytical limit of quantitation (LOQ) was 2 ng/mL. The pharmacokinetic parameters were calculated using noncompartmental analysis using PK Solutions 2.0 (Summit Research Services, Montrose, CO, USA) and a curve stripping-based method. […]
1.11. Plasma protein binding (PPB)
To determine the percentage of test compound bound to plasma, ultracentrifugation was used.
The test compound (5 µM of a 10 mM DMSO stock) was used to spike pooled human plasma.
An aliquot of the spiked solution was removed immediately and quenched with carbamazepine, […]

[6] = tested on: late-stage gametocytes (NF54-PfS16-GFP-Luc); assay: Luciferase reporter assay, late-stage gametocytes; assay type: cell-based, Plasmodium falciparum
Procedure: All the complexes were tested for their early- and late-stage gametocyte activity in a dual-point assay (1 μM and 5 μM). […]
1.5.In vitro activity against gametocyte stages
PfNF54 gametocytes were prepared and isolated according to the method reported by Reader […]
The in vitro gametocyte activity of the synthesized complexes was determined using a luciferase reporter line-based assay.
NF54-PfS16-GFP-Luc parasites were used for the stage-specific assessment of gametocytocidal activity. Early-stage gametocyte (stage I-III) experiments were performed on day 5 (representing >90% of early-stage and late-stage gametocyte (stages IV/V) experiments were performed on day 10. In each experiment, assays were set up with the use of 2-3% […]
Luciferase activity was determined in 30 µL parasite lysates by adding luciferin substrate (30 µL) (Promega Luciferase Assay System) at room temperature. […]

[7] = Single-point microsomal metabolic stability, human; assay type: in vitro ADME; conditions: human liver microsomes, 1 µM
Procedure: 1.8. Microsomal metabolic stability studies […]
rat IGS, Xenotech), and mouse (male mouse CD1, Xenotech) liver microsomes (0.4 mg/ml) for 30 min at 37 °C. Reactions were quenched by adding ice-cold acetonitrile containing […]
disappearance of the parent compound. Half-life, clearance, and hepatic excretion ratios were determined using standard equations.6,7 Propranolol. […]

Nc1cc[n+]2c(c1)-c1cc(N)cc[n+]1[Pt-2]21[O+]=C(c2ccccc2)N=C(N(CCO)CCO)[S]1.[Cl-] [C6]
IC50 [1]: 36.3 ± 0.6 nM
Aqueous solubility pH 6.5 [2]: 100 μM
Average logK ± SEM ([3]; N = 3, PBS): 2.58 ± 0.19
LogK N = 1 ([3]; replicate N = 1): 2.80
LogK N = 2 ([3]; replicate N = 2): 2.21
LogK N = 3 ([3]; replicate N = 3): 2.74
Epa1 ([4]; anodic peak potential, 0.1 V/s): –1.138 V
Epc1 ([4]; cathodic peak potential, 0.1 V/s): –1.068 V
E1/2 ([4]; half-wave potential): –1.103 V vs Ag/Ag^+
E1/2 ([4]; half-wave potential corrected to ferrocene): –1.643 V vs Fe/Fe^+
CLs i.v. ([5]; 3 mg/kg i.v.): 46.4 mL/min/kg
T1/2 i.v. ([5]; 3 mg/kg i.v.): 10.8 h
T1/2 p.o. ([5]; 10 mg/kg p.o.): 12.0 h
Bioavailability ([5]; 10 mg/kg p.o. vs 3 mg/kg i.v.): 3.8%
Vss i.v. ([5]; female Balb/C mice, 3 mg/kg i.v.): 45.6 L/kg
Vssu ([5]; i.v., unbound fraction): 4560 L/kg
CLu ([5]; p.o., unbound fraction): > 1000 mL min^–1 kg^–1
CLu i.v. ([5]; unbound fraction, Clu = Cls/Fu, i.v.): >1000 mL/min/kg
Vssu i.v. ([5]; unbound fraction, Vssu = Vss/Fu, 3 mg/kg i.v.): 4560 L/kg
LG (% inhibition) 1 µM ([6]; 1 µM, single biological repeat): 42.3 % inhibition
LG (% inhibition) 5 µM ([6]; 5 µM, single biological repeat): 32.4 % inhibition
IC50 ([6]; late (IV/V) gametocytes, luciferase, 48 h, read-out: LG IC50): > 20000 nM
Microsomal metabolic stability (% remaining after 30 min) Human [7]: 43 % remaining
